Reference: patent US12365651B2, “Use of pirfenidone and derivatives for modulation of B lymphocyte activity and organ protection from acute tissue damage” (Washington University, priority 2017, dated 2025)
“And” between values parts separate entries of the source, which are not always exact repeats. Equal values may be shown once.

Tests used:
[1] = system: Peritoneal derived inflammatory cells; assay: In vitro immunomodulatory effect of tested PEG compounds (CD86 on CD19+ cells, LPS); format: cell-based, mouse; conditions: potency in molarity; toxicity by visual inspection and DAPI staining (FIG. 11D)
Experimental: Peritoneal derived inflammatory cells were collected on day for post intraperitoneal injection of Thyoglicollate. Cells were cultured for 24 h in baseline condition (control), in the presence of LPS 100 ng/ml (LPS) or in the presence of LPS 100 ng/ml and various concentrations of different forms of Pegylated Pirfenidone (named C2 and C3 in FIG. 11A and C4 to C6 in FIG. 11B)). After the 24 h in culture cells were collected and analyzed via flow cytometry to assess the expression of CD86 on CD19+ cells (B lymphocytes). […] FIG. 11C reports the molecular weights of the tested forms of PEGylated Pirfenidone and the molecular weight (MW) ration between the tested compound and Pirfenidone).

[2] = Plasma pharmacokinetics after IV or PO administration; format: in vivo; conditions: SD Rat, 96 mg/kg
[3] = as above; format: in vivo, SD Rat
Experimental: Pirfenidone and Pegyonde-6 were administered at equimolar concentrations to rats IV or per os (PO) and serum concentrations measured at different time points to measure pharmacokinetic parameters. The drugs were solubilized in 5% Alcohol+20% PEG 300 in saline.

[4] = SD Rat, IV 96 mg/kg, individual rats 4-6, 96 mg/kg
[5] = SD Rat, PO 96 mg/kg, individual rats 10-12, 96 mg/kg

Q: With COCCOCCOCCOCCOCCOCc1ccc(-n2cc(C)ccc2=O)cc1 [PEG-Pirfenidone] as the compound, how does the “relative potency to Pirfenidone and in vitro toxicity” value [1] read?
A: Its value is “superior to the other tested variants”.

Q: What about the “Plasma concentrations of PEG-Pirfenidone” value ([2]; IV 96 mg/kg, 0.083 h, individual rats 4-6) of the same compound?
A: The value was 44227 ng/mL and 56484 ng/mL and 96487 ng/mL.

Q: And the “Plasma concentrations of PEG-Pirfenidone” value ([2]; IV 96 mg/kg, 0.5 h, individual rats 4-6)?
A: The value was 13073 ng/mL and 18584 ng/mL and 19790 ng/mL.

Q: What about the “Plasma concentrations of PEG-Pirfenidone” value ([2]; PO 96 mg/kg, 2 h, individual rats 10-12) of the same compound?
A: Its value is 219 ng/mL and 885 ng/mL and 217 ng/mL.

Q: And the “AUC0-t, Mean” value ([3]; SD Rat, IV 96 mg/kg)?
A: Its value is 34197 ng·h/mL.

Q: And the “AUC0-∞, Mean” value ([3]; SD Rat, IV 96 mg/kg)?
A: Its value is 34229 ng·h/mL.

Q: What about the “AUMC0-t, Mean” value ([3]; SD Rat, IV 96 mg/kg) of the same compound?
A: Its value is 18176 h*h*ng/mL.

Q: What about the “AUMC0—∞, Mean” value ([3]; SD Rat, IV 96 mg/kg) of the same compound?
A: The value was 18540 h*h*ng/mL.

Q: And the “CL(/F), Mean” value ([3]; SD Rat, IV 96 mg/kg)?
A: Its value is 48.72 mL/min/kg.

Q: What about the “Cmax, Mean” value ([3]; SD Rat, IV 96 mg/kg) of the same compound?
A: The value was 65733 ng/mL.

Q: And the “MRTINF, Mean” value ([3]; SD Rat, IV 96 mg/kg)?
A: Its value is 33.8 min.

Q: What about the “T1/2, Mean” value ([3]; SD Rat, IV 96 mg/kg) of the same compound?
A: The value was 79.8 min.

Q: And the “Tmax, Mean” value ([3]; SD Rat, IV 96 mg/kg)?
A: The value was 4.98 min.

Q: And the “Vss (/F), Mean” value ([3]; SD Rat, IV 96 mg/kg)?
A: Its value is 1.7 L/kg.

Q: And the “Plasma concentrations of PEG-Pirfenidone, Mean” value (shortened to “Plasma concentrations … Mean”) ([3]; SD Rat, IV 96 mg/kg, 0.083 h)?
A: The value was 65733 ng/mL.

Q: And the “Plasma concentrations … Mean” value ([3]; SD Rat, IV 96 mg/kg, 0.25 h)?
A: Its value is 41336 ng/mL.

Q: And the “Plasma concentrations of PEG-Pirfenidone” value ([3]; SD Rat, IV 96 mg/kg, 0.25 h, individual rats 4-6, 96 mg/kg)?
A: Its value is 27605 ng/mL and 35059 ng/mL and 61343 ng/mL.

Q: What about the “Plasma concentrations … Mean” value ([3]; SD Rat, IV 96 mg/kg, 0.5 h) of the same compound?
A: The value was 17149 ng/mL.

Q: What about the “Plasma concentrations … Mean” value ([3]; SD Rat, IV 96 mg/kg, 1 h) of the same compound?
A: The value was 6090 ng/mL.

Q: What about the “Plasma concentrations of PEG-Pirfenidone” value ([3]; SD Rat, IV 96 mg/kg, 1 h, individual rats 4-6, 96 mg/kg) of the same compound?
A: The value was 5974 ng/mL and 6543 ng/mL and 5755 ng/mL.

Q: What about the “Plasma concentrations … Mean” value ([3]; SD Rat, IV 96 mg/kg, 2 h) of the same compound?
A: Its value is 1533 ng/mL.

Q: What about the “Plasma concentrations of PEG-Pirfenidone” value ([3]; SD Rat, IV 96 mg/kg, 2 h, individual rats 4-6, 96 mg/kg) of the same compound?
A: Its value is 1786 ng/mL and 2091 ng/mL and 721 ng/mL.

Q: And the “Plasma concentrations … Mean” value ([3]; SD Rat, IV 96 mg/kg, 4 h)?
A: Its value is 183 ng/mL.

Q: And the “Plasma concentrations of PEG-Pirfenidone” value ([3]; SD Rat, IV 96 mg/kg, 4 h, individual rats 4-6, 96 mg/kg)?
A: Its value is 216 ng/mL and 156 ng/mL and 178 ng/mL.

Q: And the “Plasma concentrations … Mean” value ([3]; SD Rat, IV 96 mg/kg, 8 h)?
A: Its value is 20.3 ng/mL.

Q: What about the “Plasma concentrations of PEG-Pirfenidone” value ([3]; SD Rat, IV 96 mg/kg, 8 h, individual rats 4-6, 96 mg/kg) of the same compound?
A: The value was 12.9 ng/mL and 11.5 ng/mL and 36.3 ng/mL.

Q: And the “Plasma concentrations … Mean” value ([3]; SD Rat, IV 96 mg/kg, 24 h)?
A: The value was 2.97 ng/mL.

Q: What about the “Plasma concentrations of PEG-Pirfenidone” value ([3]; SD Rat, IV 96 mg/kg, 24 h, individual rats 4-6, 96 mg/kg) of the same compound?
A: Its value is “BLOQ (Below lower limit of quantification (1 ng/mL)) (2×) and 2.97 ng/ml”.

Q: And the Tmax ([3]; SD Rat, IV 96 mg/kg, individual rats 4-6)?
A: The Tmax was 4.98 min.

Q: What about the AUC0-t [3, 4] of the same compound?
A: Its AUC0-t is 26338 ng·h/mL and 32960 ng·h/mL and 43292 ng·h/mL.

Q: What about the “AUC0-∞” value [3, 4] of the same compound?
A: The value was 26353 ng·h/mL and 32968 ng·h/mL and 43367 ng·h/mL.

Q: What about the AUMC0-t [3, 4] of the same compound?
A: Its AUMC0-t is 16980 h*h*ng/mL and 20439 h*h*ng/mL and 17108 h*h*ng/mL.

Q: And the “AUMC0—∞” value [3, 4]?
A: The value was 17118 h*h*ng/mL and 20640 h*h*ng/mL and 17863 h*h*ng/mL.

Q: And the “CL(/F)” value [3, 4]?
A: The value was 60.72 mL/min/kg and 48.53 mL/min/kg and 36.9 mL/min/kg.

Q: What about the Cmax [3, 4] of the same compound?
A: The Cmax was 44227 ng/mL and 56484 ng/mL and 96487 ng/mL.

Q: What about the MRTINF [3, 4] of the same compound?
A: The MRTINF was 39 min and 37.6 min and 24.7 min.

Q: What about the T1/2 [3, 4] of the same compound?
A: Its T1/2 is 48.2 min and 106 min and 85.8 min.

Q: And the “Vss (/F)” value [3, 4]?
A: Its value is 2.366 L/kg and 1.823 L/kg and 0.912 L/kg.

Q: And the “AUC0-t, Mean” value ([3]; SD Rat, PO 96 mg/kg)?
A: Its value is 16811 ng·h/mL.

Q: What about the “AUC0-∞, Mean” value ([3]; SD Rat, PO 96 mg/kg) of the same compound?
A: The value was 16838 ng·h/mL.

Q: And the “AUMC0-t, Mean” value ([3]; SD Rat, PO 96 mg/kg)?
A: The value was 10264 h*h*ng/mL.

Q: And the “AUMC0—∞, Mean” value ([3]; SD Rat, PO 96 mg/kg)?
A: The value was 10527 h*h*ng/mL.

Q: What about the “Cmax, Mean” value ([3]; SD Rat, PO 96 mg/kg) of the same compound?
A: Its value is 23584 ng/mL.

Q: And the “MRTINF, Mean” value ([3]; SD Rat, PO 96 mg/kg)?
A: The value was 37.6 min.

Q: What about the “T1/2, Mean” value ([3]; SD Rat, PO 96 mg/kg) of the same compound?
A: Its value is 70.8 min.

Q: And the “Tmax, Mean” value ([3]; SD Rat, PO 96 mg/kg)?
A: The value was 15 min.

Q: What about the F % ([3]; SD Rat, PO 96 mg/kg vs IV 96 mg/kg) of the same compound?
A: The F % was 49.16%.

Q: What about the “Plasma concentrations … Mean” value ([3]; SD Rat, PO 96 mg/kg, 0.25 h) of the same compound?
A: Its value is 23584 ng/mL.

Q: What about the “Plasma concentrations of PEG-Pirfenidone” value ([3]; SD Rat, PO 96 mg/kg, 0.25 h, individual rats 10-12, 96 mg/kg) of the same compound?
A: The value was 8298 ng/mL and 40817 ng/mL and 21638 ng/mL.

Q: And the “Plasma concentrations … Mean” value ([3]; SD Rat, PO 96 mg/kg, 0.5 h)?
A: Its value is 19224 ng/mL.

Q: And the “Plasma concentrations of PEG-Pirfenidone” value ([3]; SD Rat, PO 96 mg/kg, 0.5 h, individual rats 10-12, 96 mg/kg)?
A: The value was 3977 ng/mL and 35217 ng/mL and 18477 ng/mL.

Q: And the “Plasma concentrations … Mean” value ([3]; SD Rat, PO 96 mg/kg, 1 h)?
A: Its value is 3748 ng/mL.

Q: And the “Plasma concentrations of PEG-Pirfenidone” value ([3]; SD Rat, PO 96 mg/kg, 1 h, individual rats 10-12, 96 mg/kg)?
A: Its value is 1157 ng/mL and 7033 ng/mL and 3053 ng/mL.

Q: What about the “Plasma concentrations … Mean” value ([3]; SD Rat, PO 96 mg/kg, 2 h) of the same compound?
A: Its value is 440 ng/mL.

Q: What about the “Plasma concentrations … Mean” value ([3]; SD Rat, PO 96 mg/kg, 4 h) of the same compound?
A: The value was 69 ng/mL.

Q: What about the “Plasma concentrations of PEG-Pirfenidone” value ([3]; SD Rat, PO 96 mg/kg, 4 h, individual rats 10-12, 96 mg/kg) of the same compound?
A: Its value is 28.4 ng/mL and 129 ng/mL and 48.8 ng/mL.

Q: What about the “Plasma concentrations … Mean” value ([3]; SD Rat, PO 96 mg/kg, 8 h) of the same compound?
A: Its value is 14 ng/mL.

Q: And the “Plasma concentrations of PEG-Pirfenidone” value ([3]; SD Rat, PO 96 mg/kg, 8 h, individual rats 10-12, 96 mg/kg)?
A: Its value is 3.09 ng/mL and 33.4 ng/mL and 6.16 ng/mL.

Q: What about the “Plasma concentrations of PEG-Pirfenidone” value ([3]; SD Rat, PO 96 mg/kg, 24 h, individual rats 10-12) of the same compound?
A: The value was “BLOQ (Below lower limit of quantification (1 ng/mL))”.

Q: What about the Tmax ([3]; SD Rat, PO 96 mg/kg, individual rats 10-12) of the same compound?
A: Its Tmax is 15 min.

Q: And the AUC0-t [3, 5]?
A: Its AUC0-t is 4853 ng·h/mL and 30468 ng·h/mL and 15112 ng·h/mL.

Q: And the “AUC0-∞” value [3, 5]?
A: Its value is 4858 ng·h/mL and 30533 ng·h/mL and 15123 ng·h/mL.

Q: And the AUMC0-t [3, 5]?
A: Its AUMC0-t is 3178 h*h*ng/mL and 19172 h*h*ng/mL and 8441 h*h*ng/mL.

Q: What about the “AUMC0—∞” value [3, 5] of the same compound?
A: Its value is 3221 h*h*ng/mL and 19815 h*h*ng/mL and 8544 h*h*ng/mL.

Q: And the Cmax [3, 5]?
A: Its Cmax is 8298 ng/mL and 40817 ng/mL and 21638 ng/mL.

Q: What about the MRTINF [3, 5] of the same compound?
A: Its MRTINF is 39.8 min and 38.9 min and 33.9 min.

Q: And the T1/2 [3, 5]?
A: Its T1/2 is 60.6 min and 80.4 min and 71.4 min.

Q: What about the “half-life compared with Pirfenidone” value ([3]; rats, equimolar, after both IV and PO administration) of the same compound?
A: The value was “longer half-life than Pirfenidone”.
